Assay results published in ChEMBL document CHEMBL1201862, “PubChem BioAssay data set” (2004).
The source made the active and inactive calls.

Experiments:
[1] = tested on: HeLa; experiment: ATP-based viability loss in HeLa cells – cell-based, CellTiter-Glo luminescence, cherry-pick samples, cytotoxicity control for MITF activator project, dose response (AID 540259); type: functional; conditions: Homo sapiens
[2] = target: Dual specificity tyrosine-phosphorylation-regulated kinase 1A (Rattus norvegicus, UniProt Q63470); type: biochemical, Homo sapiens
[3] = tested on: Escherichia coli; experiment: microbe, parasite or virus in culture
[4] = target: Mu-type opioid receptor (Homo sapiens, UniProt P35372); type: functional, cell-based;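 note: U2OS cells with beta-arrestin recruitment to OPRM1 by beta-gal complementation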
[5] = target: 5-hydroxytryptamine receptor 2A (Mus musculus, UniProt P35363); type: functional, cell-based;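 note: CHO-K1 cells with tagged receptor and beta-arrestin; agonist potency measured as compound-induced activation of the receptor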
[6] = Luminescence Cell-Based Dose Response HTS to Identify Activators of Luciferase Translation or Activity in H4 […] Cells. [Related pubchem assays: 1829 (Project Summary), 1814 (Primary HTS)]; type: functional
[7] = tested on: H4; experiment: Luminescence Cell-Based Dose Response HTS to Identify Activators of 5'UTR Stem-Loop Driven Prion Protein mRNA Translation in H4 Neuroglioblastoma Cells. [Related pubchem assays: 1829 (Project Summary), 1814 (Primary HTS)]; type: functional; conditions: Homo sapiens
[8] = target: T1, Heat shock factor protein 1 (Mus musculus, UniProt P38532); experiment: decrease of HSF1-responsive luciferase luminescence – cell-based, NIH3T3, dose retest, confirmation (AID 2382); type: functional;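 note: NIH3T3 fibroblasts with HSF1-driven luciferase reporter stressed by proteasome inhibitor MG132; luminescence from HSF1-driven luciferase expression after 8 hours of MG132 stress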
T1 sequence (P38532 whole entry): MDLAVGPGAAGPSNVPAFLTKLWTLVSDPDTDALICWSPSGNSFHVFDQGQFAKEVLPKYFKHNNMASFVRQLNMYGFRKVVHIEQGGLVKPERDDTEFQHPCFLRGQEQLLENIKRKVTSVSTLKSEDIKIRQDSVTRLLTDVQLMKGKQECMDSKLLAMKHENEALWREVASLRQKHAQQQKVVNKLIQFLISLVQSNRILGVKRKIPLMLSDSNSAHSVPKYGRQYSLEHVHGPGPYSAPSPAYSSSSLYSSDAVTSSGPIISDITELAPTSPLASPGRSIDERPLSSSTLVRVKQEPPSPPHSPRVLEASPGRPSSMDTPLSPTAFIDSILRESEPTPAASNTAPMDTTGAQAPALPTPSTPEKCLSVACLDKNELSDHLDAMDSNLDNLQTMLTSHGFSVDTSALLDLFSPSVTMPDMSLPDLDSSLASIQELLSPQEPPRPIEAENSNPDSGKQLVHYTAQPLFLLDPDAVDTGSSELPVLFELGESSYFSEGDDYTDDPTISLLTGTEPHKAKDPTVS

[9] = target: T2, Oxysterols receptor LXR-beta (Homo sapiens, UniProt P55055); type: functional, cell-based;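 note: Cell-based luminescence dose-response assay of agonist activity at LXR, run as a confirmatory counterscreen to a daf-12 agonist screen; HEK293 cells with Gal4-LXR fusion and GAL4-driven luciferase reporter; agonist potency from rising luciferase signal of a Gal4-LXR reporter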
T2 sequence (P55055 whole entry): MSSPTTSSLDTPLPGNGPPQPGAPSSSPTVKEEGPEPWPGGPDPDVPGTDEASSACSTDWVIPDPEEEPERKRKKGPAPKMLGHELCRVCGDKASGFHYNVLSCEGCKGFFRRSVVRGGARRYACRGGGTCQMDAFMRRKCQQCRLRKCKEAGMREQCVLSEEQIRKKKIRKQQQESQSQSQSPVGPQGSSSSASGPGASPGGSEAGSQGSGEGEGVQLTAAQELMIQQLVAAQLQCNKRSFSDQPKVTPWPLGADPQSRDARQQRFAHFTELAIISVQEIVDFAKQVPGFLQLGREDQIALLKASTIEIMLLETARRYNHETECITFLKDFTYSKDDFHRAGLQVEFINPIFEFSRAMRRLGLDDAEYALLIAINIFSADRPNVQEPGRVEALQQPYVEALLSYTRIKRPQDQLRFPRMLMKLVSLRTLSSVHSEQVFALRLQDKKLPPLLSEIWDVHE

[10] = fluconazole-exposed Candida albicans growth modulators – fluorescence, retest, confirmation (AID 2467); type: functional, cell-based
[11] = cells
[12] = Trypanosoma cruzi growth suppression in host cells – NIH3T3 host cells, beta-gal luminescence, confirmation (AID 2044); type: functional, cell-based;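 note: intracellular parasites grown in NIH/3T3 mouse fibroblasts as host cells; luminescent beta-galactosidase reporter signal from transgenic T. cruzi replicating inside host cells; inhibitors lower the luminescence signal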
[13] = NIH3T3 cell viability loss – ATP luminescence, mouse fibroblasts, counter-screen, dose response (AID 2010); type: functional, cell-based;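 note: cells exposed to compound for about 90 hours before reading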
[14] = NIH-3T3 fibroblast cytotoxicity, dose response, cytotoxicity control, cell-based, fluorescence, Alamar Blue, secondary assay (AID 2327); type: functional;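 note: NIH-3T3 mouse fibroblasts cultured with fluconazole at 8 µg/mL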
[15] = non-specific 3'UTR reporter inhibition in Clone20-Shn3RL – cell-based, Renilla luciferase, cherry-picked, counter-screen for Shn3 inhibitor project, dose response (AID 624133); type: functional
[16] = target: T3, Microphthalmia-associated transcription factor (Homo sapiens, UniProt O75030); experiment: reducers of TRPM1 reporter luminescence, concentration series – cell-based, SK-MEL-5, cherry-picked, set 3, MITF inhibitor project, dose response (AID 493073); type: functional;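 note: SK-MEL-5 melanoma cells with luciferase driven by the MITF target TRPM1 promoter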
T3 sequence (O75030 whole entry): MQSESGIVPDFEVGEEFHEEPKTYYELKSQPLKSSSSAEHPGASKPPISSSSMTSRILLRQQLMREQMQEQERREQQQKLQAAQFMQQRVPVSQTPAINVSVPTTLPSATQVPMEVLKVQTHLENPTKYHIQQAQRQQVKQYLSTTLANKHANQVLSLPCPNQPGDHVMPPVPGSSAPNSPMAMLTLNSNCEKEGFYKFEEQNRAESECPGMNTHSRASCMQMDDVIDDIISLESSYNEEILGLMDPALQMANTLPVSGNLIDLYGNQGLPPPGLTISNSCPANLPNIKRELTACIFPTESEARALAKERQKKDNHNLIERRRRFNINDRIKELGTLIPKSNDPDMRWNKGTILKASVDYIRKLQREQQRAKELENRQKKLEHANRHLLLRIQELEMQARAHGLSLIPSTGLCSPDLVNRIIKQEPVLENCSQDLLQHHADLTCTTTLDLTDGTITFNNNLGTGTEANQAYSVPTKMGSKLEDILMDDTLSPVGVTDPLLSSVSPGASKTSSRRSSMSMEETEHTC

[17] = loss of viability in HepG2 cells – cell-based, CellTiter-Glo, cherry-picked, cytotoxicity control for Shn3 inhibitor project, dose response (AID 624134); type: functional
[18] = reduction of Shn3 3'UTR-driven luciferase in osteoblasts – cell-based, Clone20 osteoblasts, firefly luciferase, cherry-picked, dose response (AID 624132); type: functional;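 note: firefly luciferase luminescence from reporter carrying the Shn3 3'UTR in osteoblasts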

5-hydroxytryptamine receptor 2A, sequence (P35363 whole entry): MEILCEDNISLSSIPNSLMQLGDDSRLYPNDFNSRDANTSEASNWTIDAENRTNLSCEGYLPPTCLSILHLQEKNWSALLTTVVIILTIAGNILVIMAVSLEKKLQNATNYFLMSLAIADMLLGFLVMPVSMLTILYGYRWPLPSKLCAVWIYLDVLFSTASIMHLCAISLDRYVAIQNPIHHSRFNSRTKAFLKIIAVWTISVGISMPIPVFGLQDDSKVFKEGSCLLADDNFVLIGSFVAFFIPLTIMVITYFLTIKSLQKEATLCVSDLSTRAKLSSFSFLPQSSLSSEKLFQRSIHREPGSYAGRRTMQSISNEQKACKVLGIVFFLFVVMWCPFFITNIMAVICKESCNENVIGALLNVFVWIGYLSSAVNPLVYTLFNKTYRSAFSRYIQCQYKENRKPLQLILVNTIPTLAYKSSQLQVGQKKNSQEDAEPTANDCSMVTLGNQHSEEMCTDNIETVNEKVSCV
Mu-type opioid receptor, sequence (P35372 whole entry): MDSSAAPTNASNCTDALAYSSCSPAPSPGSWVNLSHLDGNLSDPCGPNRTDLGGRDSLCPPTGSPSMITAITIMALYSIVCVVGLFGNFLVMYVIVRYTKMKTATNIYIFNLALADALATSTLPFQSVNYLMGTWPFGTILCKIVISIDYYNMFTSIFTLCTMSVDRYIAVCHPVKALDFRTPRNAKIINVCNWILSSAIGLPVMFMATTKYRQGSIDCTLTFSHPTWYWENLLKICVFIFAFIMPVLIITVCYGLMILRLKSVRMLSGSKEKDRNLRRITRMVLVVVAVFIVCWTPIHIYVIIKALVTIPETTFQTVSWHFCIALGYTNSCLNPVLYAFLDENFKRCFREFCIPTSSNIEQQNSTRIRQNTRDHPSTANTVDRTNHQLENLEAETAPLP

SMILES: CCSc1nnc(NC(=O)NC2CCCCC2)s1
- AC50 [1]: 136 µM (active)

SMILES: CCc1ccc(NC(=O)c2nnc(O)c3ccccc23)cc1
- AC50 [1]: > 350 µM (inactive)

SMILES: Nc1c(C(=O)O)ccc2c1C(=O)c1ccccc1C2=O
- AC50 [2]: 1.28 µM (active)

SMILES: CCc1ccc(N2CC(C(=O)N3CCN(c4ccccn4)CC3)CC2=O)cc1 (configuration not stated)
- AC50 [3]: 29.9 µM (active)

SMILES: Oc1ccc(C2=CCNCC2)cc1O
- EC50 [4]: 92.4 µM (inactive)
- EC50 [5]: 0.0242 µM (active)

SMILES: CC(C)c1ccc(/C=N/NC(=O)C2CCCC2)cc1
- AC50 [1]: 132 µM (active)
- EC50 [6]: 8.02 µM (active)
- EC50 [7]: 2.72 µM (active)

SMILES: C(=N\NC1=Nc2cccc3cccc1c23)/c1ccccn1
- EC50 [8]: 3.2 µM (active)
- EC50 [9]: > 67.5 µM (inactive)
- EC50 [10]: 1.05 µM (active)
- EC50 [11]: > 67.5 µM (inactive)
- EC50 [12]: 0.619 µM (active)
- AC50 [2]: 9.7 µM (active)
- EC50 [13]: > 60 µM (not active)
- EC50 [14]: 2.55 µM (inconclusive)

SMILES: CC1CCC/C=C/C(=O)c2c(O)cc(O)cc2CC(=O)O1 (configuration not stated)
- AC50 [15]: 13.6 µM (active)
- AC50 [16]: 5.79 µM (active)
- AC50 [17]: > 70 µM (inactive)
- AC50 [18]: 4.12 µM (active)

SMILES: CC1CCc2cc(F)cc3c(=O)c(C(=O)O)cn1c23 (configuration not stated) [FLUMEQUINE]
- AC50 [3]: 1.99 µM (active)
